Measured values taken from patent US20260083721A1, “7-CYANO-8-HYDROXYQUINOLINE DERIVATIVE, PREPARATION METHOD THEREFOR AND MEDICAL USE THEREOF” (Jiangsu Yahong Meditech Co., Ltd., priority 2022, published 2026).
Values after ≈ are worked out from the molar mass of the structure shown.

Assays:
Assay type in all cases: cell-based
[1] = test system: Staphylococcus aureus ATCC29213; assay: MIC by broth microdilution, S. aureus ATCC 29213; details: quality control strain, CAMHB, 35±2° C., 20 hours, drug concentration range 128 mg/L to 0.06 mg/L, read-out: inhibitory MIC value, Staphylococcus aureus ATCC29213
Excerpt: (§1) The test bacteria were 2 strains of carbapenem-resistant Escherichia coli (18-W09-093 and 18-W18-070), 2 strains of carbapenem-resistant Acinetobacter baumannii (18-W15-036 and 18-W13-081), 1 strain of methicillin-resistant Staphylococcus aureus (19-W03-012) and 1 strain of methicillin-sensitive Staphylococcus aureus (19-W01-012), isolated clinically, with duplicate strains isolated from the same patient being excluded. Besides, there were 3 quality control strains, namely Escherichia co/i ATCC 25922, Acinetobacter baumannii ATCC 19606, and Staphylococcus aureus ATCC 29213. The above strains were all provided by Shanghai GenoMatrix Medical Laboratory Co., Ltd.
(§2) The MIC of the compound of the present invention on clinically isolated strains was assayed by the broth microdilution method according to the relevant documents from the Clinical and Laboratory Standards Institute (CLSI) of United States. • 3.1 Preparation of antimicrobial drugs: the compounds of the present invention were all dissolved with DMSO. The drug concentration ranged from 128 mg/L to 0.06 mg/L. • 3.2 Culture medium: cation adjusted Mueller-Hinton broth (CAMHB) was used. • 3.3 Inoculation amount of bacteria: the isolated pure culture of test bacteria cultured overnight was adjusted to 0.5 McFarland turbidity by direct colony suspension and diluted 100 folds, and the final inoculation amount was 10^5 CFU/mL. • 3.4 Culture conditions: the bacteria were cultured in air at 35±2° C. for 20 hours.
(§3) The results of the drug sensitivity test were interpretated according to the standards of CLSI M100-ED29:2019.
(§4) The statistical analysis of the results of the drug sensitivity test was done by using WHONET version 5.6 software.

[2] = test system: carbapenem-resistant Acinetobacter baumannii 18-W15-036; assay: MIC by broth microdilution, carbapenem-resistant A. baumannii 18-W15-036; details: carbapenem-resistant clinical isolate, CAMHB, 35±2° C., 20 hours, drug concentration range 128 mg/L to 0.06 mg/L, read-out: inhibitory MIC value, Acinetobacter baumannii 18-W15-036
Excerpt: as §1, §2, §3, §4

[3] = test system: methicillin-resistant Staphylococcus aureus 19-W03-012; assay: MIC by broth microdilution, methicillin-resistant S. aureus 19-W03-012; details: methicillin-resistant clinical isolate, CAMHB, 35±2° C., 20 hours, drug concentration range 128 mg/L to 0.06 mg/L, read-out: inhibitory MIC value, Staphylococcus aureus 19-W03-012
Excerpt: as §1, §2, §3, §4

[4] = test system: methicillin-sensitive Staphylococcus aureus 19-W01-012; assay: MIC by broth microdilution, methicillin-sensitive S. aureus 19-W01-012; details: methicillin-sensitive clinical isolate, CAMHB, 35±2° C., 20 hours, drug concentration range 128 mg/L to 0.06 mg/L, read-out: inhibitory MIC value, Staphylococcus aureus 19-W01-012
Excerpt: as §1, §2, §3, §4

[5] = test system: carbapenem-resistant Escherichia coli 18-W18-070; assay: MIC by broth microdilution, carbapenem-resistant E. coli 18-W18-070; details: carbapenem-resistant clinical isolate, CAMHB, 35±2° C., 20 hours, drug concentration range 128 mg/L to 0.06 mg/L, read-out: inhibitory MIC value, Escherichia coli 18-W18-070
Excerpt: as §1, §2, §3, §4

[6] = test system: carbapenem-resistant Escherichia coli 18-W09-093; assay: MIC by broth microdilution, carbapenem-resistant E. coli 18-W09-093; details: carbapenem-resistant clinical isolate, CAMHB, 35±2° C., 20 hours, drug concentration range 128 mg/L to 0.06 mg/L, read-out: inhibitory MIC value, Escherichia coli 18-W09-093
Excerpt: as §1, §2, §3, §4

[7] = test system: Acinetobacter baumannii ATCC19606; assay: MIC by broth microdilution, A. baumannii ATCC 19606; details: quality control strain, CAMHB, 35±2° C., 20 hours, drug concentration range 128 mg/L to 0.06 mg/L, read-out: inhibitory MIC value, Acinetobacter baumannii ATCC19606
Excerpt: as §1, §2, §3, §4

[8] = test system: Escherichia coli ATCC25922; assay: MIC by broth microdilution, E. coli ATCC 25922; details: quality control strain, CAMHB, 35±2° C., 20 hours, drug concentration range 128 mg/L to 0.06 mg/L, read-out: inhibitory MIC value, Escherichia coli ATCC25922
Excerpt: as §1, §2, §3, §4

[9] = test system: carbapenem-resistant Acinetobacter baumannii 18-W13-081; assay: MIC by broth microdilution, carbapenem-resistant A. baumannii 18-W13-081; details: carbapenem-resistant clinical isolate, CAMHB, 35±2° C., 20 hours, drug concentration range 128 mg/L to 0.06 mg/L, read-out: inhibitory MIC value, Acinetobacter baumannii 18-W13-081
Excerpt: as §1, §2, §3, §4

| SMILES | MIC [1] [µg/mL] | MIC [2] [µg/mL] | MIC [3] [µg/mL] | MIC [4] [µg/mL] | MIC [5] [µg/mL] | MIC [6] [µg/mL] | MIC [7] [µg/mL] | MIC [8] [µg/mL] | MIC [9] [µg/mL] |
| --- | --- | --- | --- | --- | --- | --- | --- | --- | --- |
| N#Cc1cc(C(F)(F)F)c2cccnc2c1O [Compound 2, 5-trifluoromethyl-7-cyano-8-hydroxyquinoline] | 8 (≈ 33.6 µM) | 64 (≈ 269 µM) | 4 (≈ 16.8 µM) | 4 (≈ 16.8 µM) | 64 (≈ 269 µM) | 64 (≈ 269 µM) | 16 (≈ 67.2 µM) | 32 (≈ 134 µM) | 32 (≈ 134 µM) |
| N#Cc1c(Cl)c(Cl)c2cccnc2c1O [Compound 7, 5,6-dichloro-7-cyano-8-hydroxyquinoline] | 1 (≈ 4.18 µM) | 32 (≈ 134 µM) | 0.5 (≈ 2.09 µM) | 0.5 (≈ 2.09 µM) | > 64 | > 64 | 2 (≈ 8.37 µM) | 32 (≈ 134 µM) | 4 (≈ 16.7 µM) |
| Cc1ccnc2c(O)c(C#N)ccc12 [Compound 3, 4-methyl-7-cyano-8-hydroxyquinoline] | 8 (≈ 43.4 µM) | 8 (≈ 43.4 µM) | 8 (≈ 43.4 µM) | 8 (≈ 43.4 µM) | 16 (≈ 86.9 µM) | 16 (≈ 86.9 µM) | 8 (≈ 43.4 µM) | 8 (≈ 43.4 µM) | 8 (≈ 43.4 µM) |
| Cc1cc(C#N)c(O)c2ncccc12 [Compound A, reference compound] | 4 (≈ 21.7 µM) | 8 (≈ 43.4 µM) | 4 (≈ 21.7 µM) | 4 (≈ 21.7 µM) | 16 (≈ 86.9 µM) | 8 (≈ 43.4 µM) | 4 (≈ 21.7 µM) | 8 (≈ 43.4 µM) | 4 (≈ 21.7 µM) |
| N#Cc1cc(Cl)c2cccnc2c1O [Compound 9, 5-chloro-7-cyano-8-hydroxyquinoline] | 8 (≈ 39.1 µM) | 16 (≈ 78.2 µM) | 8 (≈ 39.1 µM) | 8 (≈ 39.1 µM) | 32 (≈ 156 µM) | 32 (≈ 156 µM) | 4 (≈ 19.5 µM) | 16 (≈ 78.2 µM) | 8 (≈ 39.1 µM) |
| Cc1ccnc2c(O)c(C#N)cc(Br)c12 [Compound 6, 4-methyl-5-bromo-7-cyano-8-hydroxyquinoline] | 4 (≈ 15.2 µM) | 32 (≈ 122 µM) | 2 (≈ 7.6 µM) | 4 (≈ 15.2 µM) | 32 (≈ 122 µM) | 32 (≈ 122 µM) | 4 (≈ 15.2 µM) | 8 (≈ 30.4 µM) | 4 (≈ 15.2 µM) |
| N#Cc1cc(Br)c2cccnc2c1O [Compound 1, 5-bromo-7-cyano-8-hydroxyquinoline] | 4 (≈ 16.1 µM) | 16 (≈ 64.2 µM) | 4 (≈ 16.1 µM) | 4 (≈ 16.1 µM) | 32 (≈ 128 µM) | 32 (≈ 128 µM) | 4 (≈ 16.1 µM) | 8 (≈ 32.1 µM) | 4 (≈ 16.1 µM) |
| N#Cc1cc(C(=O)O)c2cccnc2c1O [Compound 8, 7-cyano-8-hydroxyquinoline-5-carboxylic acid] | > 64 | > 64 | > 64 | > 64 | > 64 | > 64 | > 64 | > 64 | > 64 |
| N#Cc1ccc2ccc(F)nc2c1O [Compound 4, 2-fluoro-7-cyano-8-hydroxyquinoline] | 16 (≈ 85 µM) | 8 (≈ 42.5 µM) | 16 (≈ 85 µM) | 16 (≈ 85 µM) | 16 (≈ 85 µM) | 16 (≈ 85 µM) | 4 (≈ 21.3 µM) | 8 (≈ 42.5 µM) | 8 (≈ 42.5 µM) |
| Cc1ccnc2c(O)c(C#N)cc(Cl)c12 [Compound 5, 4-methyl-5-chloro-7-cyano-8-hydroxyquinoline] | 4 (≈ 18.3 µM) | 8 (≈ 36.6 µM) | 2 (≈ 9.15 µM) | 4 (≈ 18.3 µM) | 16 (≈ 73.2 µM) | 32 (≈ 146 µM) | 4 (≈ 18.3 µM) | 8 (≈ 36.6 µM) | 2 (≈ 9.15 µM) |
